# Experimental data from BindingDB's records for doi:10.7270/Q2S46QBK (The Scripps Research Institute Molecular Screening Center, 2008).
# Biological target: T1, Signal transducer and activator of transcription 3 [702-738,740-752] (Homo sapiens, UniProt P40763)
# T1 construct: 702-738,740-752
# Assay: STAT3 activation reporter response, dose response, cell-based (AID 1398)
# T1 sequence (P40763 as listed by the source): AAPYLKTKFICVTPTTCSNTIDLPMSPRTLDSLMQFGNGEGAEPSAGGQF
row,Compound,IC50
1,Cc1[nH]n(-c2ccccc2)c(=O)c1C=C1C(=O)NC(=O)NC1=O,> 55700 nM
2,"Cc1nonc1CC(=O)N1CCc2c([nH]c3ccccc23)C1c1ccccc1F (stereo not given) [1-[1-(2-fluorophenyl)-1,3,4,9-tetrahydropyrido[3,4-b]indol-2-yl]-2-(4-methyl-1,2,5-oxadiazol-3-yl)ethanone]",> 2060 nM
3,"CCCSc1nnc(Sc2nnnn2-c2ccccc2)s1 [2-(1-phenyltetrazol-5-yl)sulfanyl-5-propylsulfanyl-1,3,4-thiadiazole]",> 6190 nM
4,Cn1c(CNc2ccccc2O)nc2ccccc21 [2-[(1-methyl-2-benzimidazolyl)methylamino]phenol],> 8.49 nM
5,Cc1cccc(NC(=O)c2cc([N+](=O)[O-])ccc2Cl)c1O [2-chloranyl-N-(3-methyl-2-oxidanyl-phenyl)-5-nitro-benzamide],> 6190 nM
6,"Cn1nc(-c2ccc(Cl)cc2)c2cc(C(=O)NCCCN3CCCC3)sc21 [3-(4-chlorophenyl)-1-methyl-N-(3-pyrrolidin-1-ylpropyl)thieno[2,3-c]pyrazole-5-carboxamide]",> 6190 nM
7,"COC(=O)C(NC=O)C(O)(Cc1ccccc1)C(F)(F)F (stereo not given) [3-benzyl-4,4,4-trifluoro-2-formamido-3-hydroxy-butyric acid methyl ester]",> 688 nM
8,COC(=O)c1sccc1NC(=O)c1cc2c(s1)CCCC2 [MLS000051746],> 2060 nM
9,COc1ccccc1C(=O)Nc1cc(Cl)ccc1O [MLS000078111],> 2060 nM
10,CC(=O)Nc1c(Cl)n(C(C)=O)c2ccccc12 [MLS000104263],> 76 nM
11,CCCc1cc(C(=O)Nc2cc(OC)c(Cl)cc2OC)no1 [MLS000116379],> 229 nM
12,COc1cc(NC(=O)c2cc(C(C)C)on2)c(OC)cc1Cl [MLS000520019],> 229 nM
13,COc1cc(NC(=O)c2cc(C3CC3)on2)c(OC)cc1Cl [MLS000522376],> 76 nM
14,Nc1nc(-c2ccc(Cl)cc2)nn1C(=O)c1cccs1 [MLS000706198],> 688 nM
15,COc1ccccc1NC(=O)c1[nH]c(C)c(C(C)=O)c1C [SMR000066913],> 25.5 nM
